Data from patent US6376546B1, “Biphenyl-5-alkanoic acid derivatives and use thereof” (Asahi Kasei Kabushiki Kaisha, priority 1997, dated 2002).

Tests used:
[1] = test system: anti-OVA-IgE antibody production; assay: Suppressive effect on mouse in vivo anti-OVA-IgE antibody production; details: po, 336 h, BALB/c mice immunized with OVA on aluminium hydroxide gel, 100 mg/kg orally once a day for 5 days, serum on day 14, PCA reaction in Wistar rats, read-out: Suppressive rate for IgE antibody production (%)
Method: BALB/c mice, female, 7 weeks old, 7 mice in a group, and 9-11 mice in control group, were used for tests.
Suppressive effect of the compound of the present invention on IgE antibody production was evaluated according to a method described in the reference, Levin and Vaz, International Archives of Allergy and Applied Immunology, 39: 156, 1970. Immunization was performed by intraperitoneally administering aluminium hydroxide gel (4 mg, PIERCE Inc.) adsorbed with egg albumin (OVA; Sigma Inc.) 10 μg in mice. Test compounds were suspended or dissolved in water containing 0.5% carboxymethyl cellulose, and administered orally to test animals, 100 mg/kg, immediately after immunization, once a day for 5 days. Water containing 0.5% carboxymethyl cellulose without addition of test compound was administered to the control group.
On day 14 after the immunization, blood was collected, and passive cutaneous anaphylaxis (PCA) reaction was performed according to the method described in the reference, Ovary et al. International Archives of Allergy and Applied Immunology, 48: 16, 1975, to determine the antibody production. Serum 0.1 ml, which was serially twofold diluted with physiological saline, was injected intracutaneously in the back of Wistar rats, male, 8 weeks old. After 24 hours, 0.5% Evans blue physiological saline solution, which contains OVA 2 mg, 1 ml was injected intravenously to determine the serum boundary concentration of pigment infiltration.
Suppressive rate for IgE antibody production is determined by the following equation.
Suppressive rate for IgE antibody production (%) [formula]

[2] = test system: immediate type allergic foot-pad reaction; assay: Suppression of mouse in vivo foot-pad reaction; details: BALB/c mice immunized by egg albumin; oral 3-100 mg/kg once a day for 5 days; compared with the positive control
Method: BALB/c mice, female, 7 weeks old, 5 mice in a group for test group and 12-14 mice for control group were used for tests.
Effect of the compounds of the present invention on suppression of mouse in vivo foot-pad reaction is evaluated by the following method.
Mice were immunized by administering intraperitoneally 4 mg of aluminium hydroxide gel, which was adsorbed with OVA 5 μg. Test compounds were suspended or dissolved in water containing 0.5% carboxymethyl cellulose, and were administered to test animals orally at 3-100 mg/kg, once a day, for 5 days, from immediately after immunization. For control groups, water containing 0.5% carboxymethyl cellulose without addition of the test compound was administered.
After 10 days of immunization, OVA 10 μg was injected into the hindlim pads of mice to induce immediate type allergic foot-pad reaction. Control groups were divided into tow groups. The one was injected OVA to induce allergic foot-pad reaction for positive control, and the other was injected physiological saline for negative control. After 30 minutes, foot-pad volume of hidlimb of mice was measured by using Plethysmometer (Unicom Co.) to determine increased rate for comparison before induction of foot-pad reaction.
Suppressive rate for foot-pad reaction is obtained by the following equation.
Suppressive rate for foot-pad reaction (%) [formula]
A: increased rate of foot-pad reaction in positive control group,
B: increased rate of foot-pad reaction in negative control group,
C: increased rate of foot-pad reaction in test group (test compound administered group).

Row | Structure (SMILES) | inhibition in vivo at 100 mg/kg [1] [%] | suppressive action against immediate type allergic foot-pad reaction [2]
1 | CCCCOc1c(NC(C)=O)cc(CCC(=O)O)cc1-c1ccccc1 [Compound(15), 3-(3-acetylamino-2-butoxy-1,1′-biphenyl-5-yl)propionic Acid] | 64.2 | –
2 | O=C(O)CCCc1ccc(OCC(=O)O)c(-c2ccccc2)c1 [Compound(44), 4-(2-carboxymethyloxy-1,1′-biphenyl-5-yl)butyric Acid] | 71.5 | significant suppressive action
3 | CCCCOc1ccc(-c2ccccc2)cc1CCCC(=O)O [Control(6), 4-(4-butoxy-1,1′-biphenyl-3-yl)butyric acid, reference compound] | 7.3 | –
4 | NC(=O)Nc1cc(CCC(=O)O)cc(-c2ccccc2)c1OCC1CCCCC1 [Compound(22), 3-(3-carbamoylamino-2-cyclohexylmethyloxy-1,1′-biphenyl-5-yl)propionic Acid] | 48.1 | significant suppressive action
5 | CCCCOc1ccc(CCCC(=O)NCC)cc1-c1ccccc1 [Control(5), N-ethyl-4-(2-butoxy-1,1′-biphenyl-5-yl)butyramide, reference compound] | -2.5 | –
6 | COc1ccc(CCC(=O)O)cc1-c1ccccc1 [Control(1), 3-(2-methoxy-1,1′-biphenyl-5-yl)propionic acid, reference compound] | -14.4 | –
7 | O=C(O)CCc1ccc(OCC2CCCCC2)c(-c2ccccc2)c1 [Compound(07), 3-(2-cyclohexylmethyloxy-1,1′-biphenyl-5-yl)propionic Acid] | 62 | significant suppressive action
8 | CCCCCOc1ccc(CCC(=O)O)cc1-c1ccccc1 [Compound(03), 3-(2-pentyloxy-1,1′-biphenyl-5-yl)propionic Acid] | 50.9 | –
9 | NC(=O)COc1ccc(CCCC(=O)O)cc1-c1ccccc1 [Compound(47), 4-(2-carbamoylmethyloxy-1,1′-biphenyl-5-yl)butyric Acid] | 65.7 | significant suppressive action
10 | O=C(O)CCCOc1ccc(CCCC(=O)O)cc1-c1ccccc1 [Compound(46), 4-[2-(3-carboxypropyloxy)-1,1′-biphenyl-5-yl]butyric Acid] | 64.6 | –
11 | CCCCCOc1ccc(CCCC(=O)O)cc1-c1ccccc1 [Compound(31), 4-(2-pentyloxy-1,1′-biphenyl-5-yl)butyric Acid] | 49.8 | –
12 | O=C(O)CCc1ccc(OCC(=O)O)c(-c2ccccc2)c1 [Compound(12), 3-(2-carboxymethyloxy-1,1′-biphenyl-5-yl)propionic acid] | 50.8 | –
13 | O=C(O)CCc1ccc(OC2CCCC2)c(-c2ccccc2)c1 [Compound(04), 3-(2-cyclopentyloxy-1,1′-biphenyl-5-yl)propionic Acid] | 45.5 | significant suppressive action
14 | CC1(C)CCC(C)(C)c2cc(COc3ccc(C(=O)O)cc3-c3ccccc3)ccc21 [Control(3), [2-(5,6,7,8-tetrahydro-5,5,8,8-tetramethyl-2-naphthalenyl)methyloxy-1,1′-biphenyl-5-yl]carboxylic acid, reference compound] | -2.8 | –
15 | C=CCOc1ccc(-c2cc(CCC(=O)OC)ccc2OCc2ccccc2)cc1 [Control(2), Methyl 3-(4′-allyloxy-2-benzyloxy-1,1′-biphenyl-5-yl)propionate, reference compound] | -11.6 | –
16 | O=C(O)CCc1ccc(OCC2CCCCC2)c(-c2ccc(O)cc2)c1 [Compound(25), 3-(2-cyclohexylmethyloxy-4′-hydroxy-1,1′-biphenyl-5-yl)propionic Acid] | 45.5 | significant suppressive action
17 | CC1(C)CCC(C)(C)c2cc(COc3cccc(CCC(=O)O)c3-c3cccc(C(=O)O)c3)ccc21 [Control(4), 3-[3′-carboxy-2-(5,6,7,8-tetrahydro-5,5,8,8-tetramethyl-2-naphthalenyl)methyloxy-1,1′-biphenyl-6-yl]propionic acid, reference compound] | -8.4 | –
18 | CCCCOc1c(NC(C)=O)cc(CCCC(=O)O)cc1-c1ccccc1 [Compound(52), 4-(3-acetylamino-2-butoxy-1,1′-biphenyl-5-yl)butyric Acid] | 64.2 | –
19 | CCC(O)COc1ccc(CCC(=O)O)cc1-c1ccccc1 (centres unmarked) [Compound(08), 3-[2-(2-hydroxybutyloxy)-1,1′-biphenyl-5-yl]propionic acid] | 58.9 | –
20 | CCCCOc1ccc(CCC(=O)O)cc1-c1ccccc1 [Compound(01), 3-(2-butoxy-1,1′-biphenyl-5-yl)propionic acid] | 72.3 | –
21 | O=C(O)CCCc1ccc(OCCC(=O)O)c(-c2ccccc2)c1 [Compound(45), 4-[2-(2-carboxyethyloxy)-1,1′-biphenyl-5-yl]butyric Acid] | 57 | –
22 | CCCCOc1ccc(CCCC(N)=O)cc1-c1ccccc1 [Compound(55), 4-(2-butoxy-1,1′-biphenyl-5-yl)butyramide] | 55.7 | significant suppressive action
23 | CC(C)COc1ccc(CCCC(=O)O)cc1-c1ccccc1 [Compound(29), 4-(2-isobutoxy-1,1′-biphenyl-5-yl)butyric Acid] | 55.7 | –
24 | CCCCOc1ccc(CCCC(=O)O)cc1-c1ccccc1 [Compound(28), 4-(2-butoxy-1,1′-biphenyl-5-yl)butyric Acid] | 44.5 | significant suppressive action
